One data set concerns the target T1, hOATP1B3 (Homo sapiens, UniProt Q9NPD5).
T1 sequence (Q9NPD5 1-702): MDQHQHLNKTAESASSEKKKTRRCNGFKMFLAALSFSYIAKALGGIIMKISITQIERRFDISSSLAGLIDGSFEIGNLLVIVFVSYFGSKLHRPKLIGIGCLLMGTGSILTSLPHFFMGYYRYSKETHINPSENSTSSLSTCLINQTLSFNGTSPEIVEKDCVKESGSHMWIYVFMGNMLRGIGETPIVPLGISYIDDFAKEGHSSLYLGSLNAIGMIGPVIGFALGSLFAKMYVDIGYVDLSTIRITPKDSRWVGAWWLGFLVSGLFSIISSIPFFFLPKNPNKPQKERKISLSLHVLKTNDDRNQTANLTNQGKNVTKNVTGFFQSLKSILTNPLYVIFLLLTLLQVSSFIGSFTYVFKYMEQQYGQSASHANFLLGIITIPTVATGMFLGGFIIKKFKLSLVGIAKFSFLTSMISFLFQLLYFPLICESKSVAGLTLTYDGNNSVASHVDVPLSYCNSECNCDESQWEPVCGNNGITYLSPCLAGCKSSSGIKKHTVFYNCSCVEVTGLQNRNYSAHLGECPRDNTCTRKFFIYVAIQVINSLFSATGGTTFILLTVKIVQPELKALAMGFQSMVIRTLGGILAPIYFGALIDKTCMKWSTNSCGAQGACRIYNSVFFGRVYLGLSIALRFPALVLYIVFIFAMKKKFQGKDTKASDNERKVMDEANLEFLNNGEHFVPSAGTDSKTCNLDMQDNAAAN
The data set can be described thus: Inhibition of vincristine uptake in HEK293 cells overexpressing hOATP1B3. The following applies: inhibitor 15 min pre-treatment.

A further data set concerns the target T2, LYN kinase (Mus musculus, UniProt P25911).
T2 construct: from tissue
The data set can be described thus: Phosphorylation of LYN kinase in DRG of mice (phospho-LYN/total LYN). The format is in vivo. The method, then: mg/kg; p.o.) wild-type mice, using specific antibodies for phospho-LYN and total LYN (n = 3 per group).
(C) Mechanical allodynia in wild-type mice and LYN-deficient [LYN(-/-)] mice 24 h after a single dose of
Data presented represent the mean (bars) ± SEM (error
bars), and paw sensitivity is expressed as a percentage over baseline values. Statistical analysis was […]

The target of another data set is rOATP1A5 (Rattus norvegicus, UniProt O88397). Briefly: Vincristine uptake screen, HeLa cells overexpressing rOATP1A5. The format is in vitro ADME. The method, then: (§1) Relative uptake is expressed as percentage change compared with empty vector controls (n = 4–14 per group). […] Human OATP1B1 and OATP1B3 transporter–overexpressed cells were used as positive controls; empty vector controls were used as the negative control. […] Mechanical allodynia (C), thermal hyperalgesia (D), and sciatic nerve maximal action potential amplitudes (E) are expressed as percentage change relative to baseline values (n = 6–8 per group). Statistical analysis was performed using a 2-way ANOVA with Bonferroni’s post hoc test. **P < 0.01, ***P < 0.001, ****P < 0.0001, compared with baseline values. […] Data are shown as mean ± SEM. […]
(§2) transfected with transporters of interest, including hOAT1, hOAT3, hOAT4, hOATP1A2, hOATP3A1, hOATP4A1, hOATP5A1, hOATP1C1, hOATP1B1, hOATP1B3, hOATP2B1, hOCT1, hOCT2, hOCTN1, hOCTN2, hASBT, hNTCP, hNPT1, hMATE1, hOSTα/β, hPEPT1, hPEPT2, rOatp1a1, rOatp1a4, rOatp1a5, rOatp1b2, rNtcp, rAsbt, rOat1, and rOct1. Cells were transfected with expression plasmid or vector control lacking any insert using Lipofectin reagent (Invitrogen). Sixteen hours thereafter, cells were washed with transport media (OPTIMEM, Invitrogen) and treated with radiolabeled drug. […] The cellular radioactivity was quantified by liquid scintillation counting as described above. […]

The target in a further data set is rOCT1 (Rattus norvegicus, UniProt Q63089). The data set can be described thus: Vincristine uptake screen, HeLa cells overexpressing rOCT1. Format: in vitro ADME. As for the experimental part:
as §1, §2

Data set [1] can be described thus: Plasma pharmacokinetics of vincristine in mice. The note with it: for concentration at 1 h / concentration at 4 h / concentration at 0.5 h / concentration at 0.25 h / AUC(0-t) / Cmax / concentration at 2 h: mouse, in vivo; for AUC(0-t) / Cmax: male; for AUC(0-t): AUC0-4h. The method, then: were collected at the final time point. […]
specimens were stored at -80°C until further processing. […]
stainless steel bead (Qiagen) and processed for 4 min at 40 Hz. Finally, the beads were removed, and the homogenized samples were stored at -80°C until analysis by LC-MS/MS.
Pharmacokinetic parameters were calculated by non -compartmental analysis using Phoenix WinNonlin version 8.0 (Certara). Peak plasma concentration (C max) was determined by visual inspection of the data from the concentration-time curves. The linear trapezoidal rule was used to obtain the area under the plasma concentration-time curve (AUC), and drug levels in tissues were corrected for […]
Determination of drug levels.
Quantiva triple quadrupole mass spectrometer from Thermo Fisher Scientific was used for LC-MS/MS […]
column was maintained at 50°C. […]
quantification was 5 ng/mL.
450 °C. […] Precursor molecular ions and […]
dose of 4 mg/kg. […] The sample
Morphologic and morphometric evaluation. […]
for light microscopy and morphometric analysis.

The next data set has as its system RS411. Briefly: Cytotoxicity of vincristine with or without nilotinib, MTT assay, RS411. The format is cell-based, human. The note with it: RS411 cells, vincristine alone, individual replicates. Background: Formazan colour is commonly taken as a measure of viable cells.
Setting [2] is: DBA/1LacJ, ip, 1 mg/kg, Plasma concentration of vincristine.
The mark [3] stands for this setting: ip, 1 mg/kg, Plasma concentration of vincristine.

Several values for one entry are separate records, joined by “and”; a condition that tells them apart may be missing. Equal values may be shown once.

Usually AUC(0-t) stands for exposure summed from dosing to a finite time, without extrapolation to infinity. A low value points to less exposure. In general, Cmax refers to the highest concentration seen after dosing. Broadly, the IC50 is the point on the concentration scale where inhibition reaches its midpoint. Read a high IC50 as weaker potency in that assay.

T2 sequence (P25911 whole entry): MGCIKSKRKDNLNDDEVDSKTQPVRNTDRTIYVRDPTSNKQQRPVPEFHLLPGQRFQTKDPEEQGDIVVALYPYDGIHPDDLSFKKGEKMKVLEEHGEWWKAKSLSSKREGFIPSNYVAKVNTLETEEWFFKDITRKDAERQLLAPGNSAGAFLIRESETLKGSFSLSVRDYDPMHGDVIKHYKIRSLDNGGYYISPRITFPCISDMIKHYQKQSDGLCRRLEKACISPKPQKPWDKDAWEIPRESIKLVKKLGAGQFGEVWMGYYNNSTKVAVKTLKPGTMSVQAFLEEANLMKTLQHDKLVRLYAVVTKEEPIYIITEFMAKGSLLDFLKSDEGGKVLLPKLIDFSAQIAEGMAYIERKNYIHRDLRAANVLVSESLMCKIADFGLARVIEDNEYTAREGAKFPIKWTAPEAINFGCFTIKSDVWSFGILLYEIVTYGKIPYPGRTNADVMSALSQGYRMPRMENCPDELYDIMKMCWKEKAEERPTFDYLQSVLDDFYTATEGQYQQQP
Chain of rOCT1 (Q63089 whole entry): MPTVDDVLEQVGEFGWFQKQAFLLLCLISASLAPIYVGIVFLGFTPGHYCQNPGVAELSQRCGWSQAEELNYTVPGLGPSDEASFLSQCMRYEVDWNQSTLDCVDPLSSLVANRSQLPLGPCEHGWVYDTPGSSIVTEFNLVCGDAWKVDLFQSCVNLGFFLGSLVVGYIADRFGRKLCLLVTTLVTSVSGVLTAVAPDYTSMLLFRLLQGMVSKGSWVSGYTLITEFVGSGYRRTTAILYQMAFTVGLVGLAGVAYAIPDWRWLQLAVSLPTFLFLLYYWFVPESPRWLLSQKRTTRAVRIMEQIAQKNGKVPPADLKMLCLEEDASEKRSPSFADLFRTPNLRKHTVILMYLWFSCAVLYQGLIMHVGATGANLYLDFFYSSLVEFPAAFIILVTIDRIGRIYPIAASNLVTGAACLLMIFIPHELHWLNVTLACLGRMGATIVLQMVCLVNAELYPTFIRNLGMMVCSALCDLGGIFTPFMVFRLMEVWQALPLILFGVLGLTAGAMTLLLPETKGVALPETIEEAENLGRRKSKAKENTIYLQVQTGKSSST
Chain of rOATP1A5 (O88397 whole entry): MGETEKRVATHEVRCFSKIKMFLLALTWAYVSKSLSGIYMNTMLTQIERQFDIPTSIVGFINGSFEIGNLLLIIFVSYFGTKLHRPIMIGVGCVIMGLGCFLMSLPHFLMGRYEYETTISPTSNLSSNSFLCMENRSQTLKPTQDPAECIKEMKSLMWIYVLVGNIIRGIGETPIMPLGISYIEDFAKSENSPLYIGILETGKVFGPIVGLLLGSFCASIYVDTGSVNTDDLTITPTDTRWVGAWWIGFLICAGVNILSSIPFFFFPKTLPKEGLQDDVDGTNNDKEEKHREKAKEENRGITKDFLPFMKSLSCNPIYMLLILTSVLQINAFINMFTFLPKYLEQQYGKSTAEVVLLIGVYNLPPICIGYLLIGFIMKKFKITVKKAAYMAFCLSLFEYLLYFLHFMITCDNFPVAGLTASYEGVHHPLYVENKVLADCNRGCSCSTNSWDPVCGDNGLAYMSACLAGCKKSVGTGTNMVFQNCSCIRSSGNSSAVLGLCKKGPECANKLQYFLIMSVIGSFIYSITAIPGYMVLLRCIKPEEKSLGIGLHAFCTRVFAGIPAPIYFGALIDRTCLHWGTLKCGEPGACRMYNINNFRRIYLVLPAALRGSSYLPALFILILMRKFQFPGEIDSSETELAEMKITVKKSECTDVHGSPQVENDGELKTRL

In the case of `Cc1cn(-c2cc(NC(=O)c3ccc(C)c(Nc4nccc(-c5cccnc5)n4)c3)cc(C(F)(F)F)c2)cn1` [Nilotinib, nilotinib], the “Vincristine uptake (% of vehicle)” value on hOATP1B3 is 56.9618 % of vehicle and 79.3107 % of vehicle and 46.7964 % of vehicle and 63.7354 % of vehicle and 65.1694 % of vehicle and 69.9849 % of vehicle. Moreover, the “DRG Phosho-LYN/Total LYN (% of Untreated)” value at LYN kinase (DRG of mice) was 47.9691 % of Untreated and 52.4315 % of Untreated and 37.2669 % of Untreated. In addition, on LYN kinase (nilotinib 100 mg/kg p.o., wild-type mice), the “Phosphorylated-LYN in DRG neurons” value is “significant inhibition of phosphorylated-LYN in DRG neurons”.
On to `CC[C@]1(O)C[C@H]2CN(CCc3c([nH]c4ccccc34)[C@@](C(=O)OC)(c3cc4c(cc3OC)N(C=O)[C@H]3[C@@](O)(C(=O)OC)[C@H](OC(C)=O)[C@]5(CC)C=CCN6CC[C@]43[C@@H]65)C2)C1` [Vincristine, vincristine], for which the “Vincristine uptake (% of vector control)” value at rOATP1A5 was 107.00 % of vector control and 77.00 % of vector control and 126.00 % of vector control and 95.00 % of vector control and 111.00 % of vector control and 145.00 % of vector control and 98.00 % of vector control; on rOCT1, 113.00 % of vector control and 108.00 % of vector control and 138.00 % of vector control and 121.00 % of vector control. For the same molecule, the concentration at 1 h in data set [1] (DBA/1LacJ, 1 mg/kg, Plasma concentration of vincristine, OATP1B2(-/-) + Vehicle, vincristine 1 mg/kg, 1 h) came out at 88.4 ng/mL; in data set [1] (DBA/1LacJ, Plasma concentration of vincristine, OATP1B2(-/-) + Nilotinib (100 mg/kg pretreatment), vincristine 1 mg/kg, 1 h), 108 ng/mL; in data set [1] (setting [2]), 315 ng/mL; in data set [1] (1 mg/kg, Plasma concentration of Vincristine (ng/mL), OATP1A/1B(-/-) mice, 1 h) it was 195 ng/mL; in data set [1] (1 mg/kg, Plasma concentration of vincristine, Wild-type + Vehicle, vincristine 1 mg/kg, 1 h), 116 ng/mL; in data set [1] (Plasma concentration of vincristine, Wild-type + Nilotinib (100 mg/kg pretreatment), vincristine 1 mg/kg, 1 h), 104 ng/mL. In data set [1] (setting [3]), this molecule gave a concentration at 1 h of 273 ng/mL. The concentration at 4 h in data set [1] (DBA/1LacJ, 1 mg/kg, Plasma concentration of vincristine, OATP1B2(-/-) + Vehicle, vincristine 1 mg/kg, 4 h) is 65.5 ng/mL; in data set [1] (setting [2]), 90.9 ng/mL; in data set [1] (setting [3]) it was 114 ng/mL; in data set [1] (ip, 1 mg/kg, Plasma concentration of vincristine, Wild-type mice, 1 mg/kg i.p., 4 h) it was 102 ng/mL. The concentration at 0.5 h stood at 225 ng/mL in data set [1] (DBA/1LacJ, Plasma concentration of vincristine, OATP1B2(-/-) + Nilotinib (100 mg/kg pretreatment), vincristine 1 mg/kg, 0.5 h); 599 ng/mL in data set [1] (setting [2]); 124 ng/mL in data set [1] (Plasma concentration of vincristine, Wild-type + Nilotinib (100 mg/kg pretreatment), vincristine 1 mg/kg, 0.5 h); 376 ng/mL in data set [1] (setting [3]). Moreover, the results for the concentration at 0.25 h in data set [1] (setting [2]) and in data set [1] (setting [3]) were 707 ng/mL and 735 ng/mL, respectively. In addition, the “Plasma concentration of Vincristine” value in data set [1] (Wild-type mice, 2 h) is 104.1 ng/mL. In addition, the AUC(0-t) in data set [1] (DBA/1LacJ, ip, 1 mg/kg) worked out at 1290 ± 49.8 ng·h/mL; in data set [1] (ip, 1 mg/kg), 1060 ± 36.2 ng·h/mL. Besides, the Cmax is 1130 ± 148 ng/mL in data set [1] (DBA/1LacJ, ip, 1 mg/kg) and 1190 ± 113 ng/mL in data set [1] (ip, 1 mg/kg). The concentration at 2 h in data set [1] (1 mg/kg, Plasma concentration of Vincristine (ng/mL), OATP1A/1B(-/-) mice, 2 h) came to 89.9 ng/mL; in data set [1] (1 mg/kg, Plasma concentration of Vincristine (ng/mL), Wild-type mice, 2 h), 112 ng/mL. Also, in the data set with RS411, the IC50 was 4.81 nM and 6.23 nM and 4 nM and 8.42 nM and 6.45 nM and 7.46 nM and 5.33 nM and 4.58 nM and 7.35 nM.

The record behind these values is publication PMC10443802, “Targeting a xenobiotic transporter to ameliorate vincristine-induced sensory neuropathy” (JCI Insight, 2023).
